In publication PMC5585923, “Isolation and characterization of the compounds responsible for the antimutagenic activity of Combretum microphyllum (Combretaceae) leaf extracts” (BMC Complementary and Alternative Medicine, 2017):
Converted amounts (≈) assume the structure as drawn. Where two headings read alike, the source gives them in different places. Values belong to the molecule of their own block, whether it stands above or below them.

Tests used:
[1] = MTT cytotoxicity assay; format: cell-based; settings: human; for viability at 2 days, 200 μg/ml: 200 μg/ml (highest concentration tested), read-out: percentage cell viability
Experimental: (§1) Briefly, the cells were maintained in minimal essential medium supplemented with 10% foetal calf serum and sodium pyruvate. Cell suspensions were prepared from confluent monolayer cultures and plated at a density of 5 × 10^4 cells/ml and a total of 200 μl of the cell suspension was plated in a 96-well culture plate. After incubation at 37 °C in a 5% CO2 incubator, the cells were treated with different concentrations of the isolated compounds ranging from 10 to 200 μg/ml and incubated for 2 days. Doxorubicin chloride was used as the positive control. The wells were washed with PBS and fresh medium (200 μl) was then added to the wells. MTT (Sigma) dissolved in PBS (30 μl) was added to each well and incubated for 4 h at 37 °C. The medium was removed and MTT formazan crystals were dissolved in 50 μl DMSO. The amount of MTT reduction was measured immediately by detecting the absorbance using a microplate reader (BioTek Synergy, Analytical and Diagnostic Products, South Africa) at a wavelength of 570 nm. The percentage of cell viability was calculated using the formula below: %cell viability=Mean Absorbance of sample/Mean Absorbance of control×100
(§2) The intensity of the MTT formazan produced by living metabolically active cells is directly proportional to the number of live cells present (Mosmann, [14]).

[2] = DPPH free radical scavenging (antioxidant) assay; settings: tested 100 to 0.048 μg/ml
Experimental: The DPPH free radical scavenging spectrophotometric method described by Mensor et al. and modified by Aderogba et al. was used to evaluate the quantitative antioxidant activity. Reactions were carried out in 96-well microtitre plates and each of the isolated compounds was tested at varying concentrations ranging from 100 to 0.048 μg/ml. Blank solutions were prepared with methanol only while the negative control was DPPH solution (20 μl plus 50 μl methanol). Test sample solution contained compounds serially diluted in methanol. Methanol served as a blank for the microplate reader and the decrease in absorbance was measured at 515 nm. Percentage antioxidant activity (AA%) values were calculated from the absorbance values using the formula: AA%=100−Abssample–Absblank×100/Abscontrol
(Abs sample is the absorbance of the sample, Abs blank is the absorbance of the blank and Abs control is the absorbance of the control). L-ascorbic acid (vitamin C) was used as a positive control (antioxidant agent). The EC50 value, defined as the concentration of the sample leading to 50% reduction of the initial DPPH concentration, was calculated from the separate linear regression of plots of the mean percentage of the antioxidant activity against concentration of the test extracts obtained from the three replicate assays. The results are expressed as EC50 values obtained from the regression plots.

[3] = tested on: Salmonella typhimurium TA100; test: Ames test, mutagenicity, TA100
[4] = tested on: Salmonella typhimurium TA98; test: Ames test, mutagenicity, TA98
[5] = tested on: Salmonella typhimurium TA98; test: Ames test, antimutagenicity against 4-NQO, TA98; settings: for antimutagenic activity: TA98, against 4-NQO
Experimental: (§3) Briefly, 100 μl of bacterial stock were incubated in 20 ml of Oxoid Nutrient broth for 16 h at 37 °C on a rotary shaker. Of this overnight culture, 0.1 ml was added to 2.0 ml of top agar (containing histidine-biotin) together with 0.1 ml test solution and 0.5 ml phosphate buffer. […] To determine antimutagenicity, the test solution contained 50 μl test sample and 50 μl positive control). The top agar mixture was poured over the surface of a minimal agar plate and incubated for 48 h at 37 °C. After incubation the numbers of revertant colonies (mutants) in each plate were counted.
(§4) Where T is the number of revertants per plate in the presence of mutagen and the test solution and M is the number of revertants per plate in the positive control. All cultures were prepared in triplicate (except for the solvent control where five replicates were used). Absence of toxicity was confirmed when a background layer of bacterial growth, which should normally be present was observed.

[6] = tested on: Salmonella typhimurium TA100; test: Ames test, antimutagenicity against 4-NQO, TA100; settings: for antimutagenic activity: TA100, against 4-NQO
Experimental: as §3, §4

[7] = tested on: Salmonella typhimurium TA102; test: Ames test, antimutagenicity against MMC, TA102; settings: for antimutagenic activity: TA102, against MMC
Experimental: as §3, §4

[8] = parameters: method as in earlier work; settings: 100 μg/ml, cell-free system, ref 22 Manna et al.; cited from earlier work
[9] = tested on: human hepatocellular carcinoma (C3A) cells; test: MTT cytotoxicity assay; format: cell-based; settings: Homo sapiens; C3A cells, 200 μg/ml; read-out: inhibition of cell growth
Experimental: as §1, §2

[10] = tested on: Ehrlich ascites carcinoma (EAC) cell line; parameters: method as in Ramesh and colleagues (2012); settings: EAC cells, 100 μg/ml, ref Ramesh and colleagues (2012); cited from earlier work
[11] = tested on: Dalton's lymphoma (DLA) cell line; parameters: method as in Ramesh and colleagues (2012); settings: DLA cells, 100 μg/ml, ref Ramesh and colleagues (2012); cited from earlier work
[12] = C3A hepatocellular carcinoma cells, C3A cells, MTT, 2 days, 10 to 200 μg/ml, read-out: LC50

Structure (SMILES): CCCCCCCCCCCCCCCCCCCC(=O)O [Eicosanoic acid, eicosanoic acid]
- CC50 at 2 days [1]: > 200 µg/mL
- viability at 2 days, 200 μg/ml ([1]; C3A cells): 50.1 ± 6.21%
- EC50, DPPH free radical scavenging [2]: >100 µg/mL
- Mean number of revertant colonies per plate (±SD) ([3]; TA100, 5 μg/ml): 112.33 ± 2.89
- Mean number of revertant colonies per plate (±SD) ([3]; TA100, 50 μg/ml): 102.67 ± 4.73
- Mean number of revertant colonies per plate (±SD) ([3]; TA100, 500 μg/ml): 108.67 ± 5.03
- Mean number of revertant colonies per plate (±SD) ([4]; TA98, 5 μg/ml): 28.67 ± 5.51
- Mean number of revertant colonies per plate (±SD) ([4]; TA98, 50 μg/ml): 29.33 ± 4.04
- Mean number of revertant colonies per plate (±SD) ([4]; TA98, 500 μg/ml): 27.77 ± 1.53

- EC50, DPPH free radical scavenging [2]: 0.51 ± 0.08 µg/mL (≈ 2.9 µM)
Structure (SMILES): O=C1O[C@H]([C@@H](O)CO)C(O)=C1O [Ascorbic acid, L-ascorbic acid, reference compound]

Structure (SMILES): CCCCCCCCCCCCCCCCCCCCCCCCO [n-Tetracosanol, n-tetracosanol]
- antimutagenic activity [5]: least active compound
- viability at 2 days, 200 μg/ml ([1]; C3A hepatocellular carcinoma cells, C3A cells): 59.7 ± 7.23%
- CC50 at 2 days [1, 12]: > 200 µg/mL
- EC50, DPPH free radical scavenging [2]: >100 µg/mL
- Mean number of revertant colonies per plate (±SD) ([3]; TA100, 5 μg/ml): 127.00 ± 7.21
- Mean number of revertant colonies per plate (±SD) ([3]; TA100, 50 μg/ml): 121.33 ± 2.52
- Mean number of revertant colonies per plate (±SD) ([3]; TA100, 500 μg/ml): 125.00 ± 8.18
- antimutagenic activity [6]: least active compound
- antimutagenic activity [7]: least active compound
- Mean number of revertant colonies per plate (±SD) ([4]; TA98, 5 μg/ml): 23.67 ± 4.51
- Mean number of revertant colonies per plate (±SD) ([4]; TA98, 50 μg/ml): 35.67 ± 9.71
- Mean number of revertant colonies per plate (±SD) ([4]; TA98, 500 μg/ml): 30.00 ± 7.81

Structure (SMILES): CC1(C)CC[C@]2(C(=O)O)CC[C@]3(C)C(=CC[C@@H]4[C@@]5(C)C[C@@H](O)[C@H](O)[C@@](C)(CO)[C@@H]5CC[C@]43C)[C@@H]2C1 [Arjunolic acid, arjunolic acid]
- DPPH free radical scavenging activity [8]: up to 80%
- inhibition at 500 µg/mL ([5]; Salmonella enterica, TYPHIMURIUM, read-out: percentage antimutagenicity (inhibition of mutagenic effect of 4-NQO), TA98, 500 μg/ml (highest concentration tested), 4-NQO 2 μg/ml): 42 ± 9.6%
- antimutagenic activity [5]: most active
- inhibition at 200 µg/mL [9]: 66%
- CC50 at 2 days [1, 12]: 106 ± 5.11 µg/mL
- EC50, DPPH free radical scavenging [2]: 6.25 ± 0.29 µg/mL (≈ 12.8 µM)
- Mean number of revertant colonies per plate (±SD) ([3]; TA100, 5 μg/ml): 107.33 ± 1.15
- Mean number of revertant colonies per plate (±SD) ([3]; TA100, 50 μg/ml): 104.33 ± 2.52
- Mean number of revertant colonies per plate (±SD) ([3]; TA100, 500 μg/ml): 109.00 ± 8.72
- inhibition at 500 µg/mL ([6]; Salmonella enterica, TYPHIMURIUM, read-out: percentage antimutagenicity (inhibition of mutagenic effect of 4-NQO), TA100, 500 μg/ml (highest concentration tested), 4-NQO 1 μg/ml): 36 ± 1.5%
- percentage antimutagenicity (inhibition of mutagenic effect of 4-NQO) ([6]; TA100, 500 μg/ml (highest concentration tested), 4-NQO 1 μg/ml): ≤ 35.84 ± 1.45%
- antimutagenic activity [6]: most active
- inhibition of cell growth [10]: up to 70%
- inhibition of cell growth [11]: up to 70%
- inhibition at 500 µg/mL ([7]; Salmonella enterica, TYPHIMURIUM, read-out: percentage antimutagenicity (inhibition of mutagenic effect of MMC), TA102, 500 μg/ml (highest concentration tested), MMC 1 μg/ml): 44 ± 0.18%
- percentage antimutagenicity (inhibition of mutagenic effect of MMC) ([7]; TA102, 500 μg/ml (highest concentration tested), MMC 1 μg/ml): ≤ 43.78 ± 0.18%
- antimutagenic activity [7]: most active
- Mean number of revertant colonies per plate (±SD) ([4]; TA98, 5 μg/ml): 26.67 ± 1.15
- Mean number of revertant colonies per plate (±SD) ([4]; TA98, 50 μg/ml): 28.33 ± 3.78
- Mean number of revertant colonies per plate (±SD) ([4]; TA98, 500 μg/ml): 33.00 ± 2.65

Structure (SMILES): COc1cccc2c1C(=O)c1c(O)c3c(c(O)c1C2=O)C[C@@](O)(C(=O)CO)C[C@@H]3O[C@H]1C[C@H](N)[C@H](O)[C@H](C)O1 [Doxorubicin, Doxorubicin chloride, reference compound]
- CC50 at 2 days [1]: 640 ± 32 nM
